Laboratory results from patent publication US12577267B2, “Pyrimidine compounds for use as MAP4K1 inhibitors” (GLENMARK SPECIALITY S.A., priority 2021, dated 2026).
Structures can show the parent of a compound that is named as a salt. Where two headings read alike, the source gives them in different places.

Experiments:
MAP4K-1 enzyme = MAP4K-1 enzyme (Homo sapiens, UniProt Q92918); experiment: FRET one step binding assay (tracer displacement)
How it was run: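 TR-FRET tracer-displacement binding with 5 nM GST-tagged MAP4K-1 and 2 nM Eu-anti-GST antibody in 50 mM HEPES pH 7.5, 10 mM MgCl2, 1 mM EGTA, 0.01% Brij-35, 3% DMSO final. Compound pre-incubated 15 min on ice, then 1 h at room temperature after tracer addition. IC50 from nonlinear regression of percent-of-control dose-response.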

CT26 tumor = experiment: Anti-tumor efficacy on a syngeneic mouse colon tumor model of CT26; type: in vivo, BALB/c mice
Protocol: Evaluation of Anti-Tumor Efficacy of Example 2 and Example 30 on a Syngeneic Mouse Colon Tumor Model of CT26.
Healthy female BALB/c mice (7 to 9 weeks old and 15 to […]) were obtained from Glenmark animal facility. Animals were group housed in polypropylene cages at a controlled temperature of 20-22° C. with a light/dark cycle of 12/12 hours. They were maintained on an ad lib standard mouse pellet diet and water and all animal experiments were performed as per protocols approved by the Institutional Animal Ethics Committee (IAEC).
CT-26 cell line was obtained from American type culture (ATCC® CRL-2638™). Cells were revived in T-flask (passage 5) with complete RPMI-1640 media and incubated at 37° C. in 5% CO2, 80% relative humidity. Cells were re-suspended, pooled and split into 1:10 ratio per flask, maintained for 3 passages and passage 8 was used for cell inoculation into animals.
The right flank region of mice was shaved by electronic shaver. Required number of CT26 cells (10 million per mL of serum free media) received on ice from cell culture lab. The mice were anesthetized by isoflurane with O2 (oxygen flow meter to 1-2 liter/min and turn isoflurane vaporizer dial to 2-3%). The cells were inoculated into the right flank region of mice at cell concentration of 1 million cells/100 μL/mouse. The inoculated mice were housed in the animal room with daily observation for any undue clinical signs.
On day 10 after cell inoculation, mice were randomized based on tumor volume and grouped into different treatment groups. The mice with tumor volume range of 57 mm^3 to 119 mm^3 were included in efficacy study. Tumor volume was measured using digital vernier caliper.
The volume calculations were obtained using the formula V(mm^3)=[L×(W×W)]×0.52 • V is tumor volume, L is tumor length and W is tumor width
Compound Preparation and Administration
0.5% v/v Tween 80 and 0.5% w/v Methyl Cellulose in distilled water was used as vehicle for oral formulation. Example 2 and Example 30 were weighed and a stock suspension of 50 mg/kg/10 mL was prepared in a mortar and pestle by adding Tween 80 (0.5% v/v), Methyl cellulose (MC, 0.5% w/v). […] The body weights were recorded on daily basis and the dosing time was maintained throughout the study. […]
Tumor volume was measured in a blinded manner throughout the study. […] The % TGI was calculated by following the formula: [1−{(Tt−T0)/(Ct−C0)}]×100. • Tt=Tumor volume of treatment group on day of tumor volume • T0=Tumor volume of treatment group on day of randomization • Ct=Tumor volume of vehicle control group on day of tumor volume • C0=Tumor volume of control group on day of randomization Sacrifice Plan […]
Tumor volume data was statistically analyzed using Two-way ANOVA followed by Bonferroni's Multiple Comparison Test. […]

Sequence of MAP4K-1 enzyme (Q92918 whole entry): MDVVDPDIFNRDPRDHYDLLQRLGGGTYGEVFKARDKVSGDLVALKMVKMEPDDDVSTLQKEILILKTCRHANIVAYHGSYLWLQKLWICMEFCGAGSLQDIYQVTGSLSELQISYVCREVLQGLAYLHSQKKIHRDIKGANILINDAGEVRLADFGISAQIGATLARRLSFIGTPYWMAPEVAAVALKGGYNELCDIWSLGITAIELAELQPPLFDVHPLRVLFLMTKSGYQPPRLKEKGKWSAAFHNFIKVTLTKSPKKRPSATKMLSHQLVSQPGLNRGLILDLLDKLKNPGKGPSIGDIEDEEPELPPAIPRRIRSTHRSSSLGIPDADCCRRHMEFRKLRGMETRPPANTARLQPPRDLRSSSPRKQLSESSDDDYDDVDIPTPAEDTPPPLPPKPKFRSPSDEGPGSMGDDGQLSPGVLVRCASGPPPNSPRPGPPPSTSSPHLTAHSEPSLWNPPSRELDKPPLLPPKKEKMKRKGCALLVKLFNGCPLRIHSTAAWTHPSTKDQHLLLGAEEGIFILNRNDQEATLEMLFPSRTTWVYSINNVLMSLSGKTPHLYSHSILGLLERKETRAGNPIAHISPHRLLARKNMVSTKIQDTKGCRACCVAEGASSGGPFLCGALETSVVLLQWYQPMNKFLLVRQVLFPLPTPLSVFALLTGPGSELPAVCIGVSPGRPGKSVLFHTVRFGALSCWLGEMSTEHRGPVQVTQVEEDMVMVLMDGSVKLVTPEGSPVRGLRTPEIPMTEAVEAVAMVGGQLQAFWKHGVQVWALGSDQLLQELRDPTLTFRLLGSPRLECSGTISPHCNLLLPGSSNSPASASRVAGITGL

Compound | IC50 (MAP4K-1 enzyme) [nM] | % Inhibition at 1 μM (MAP4K-1 enzyme; 1 μM compound, 1 µM) [%] | % Inhibition at 10 μM (MAP4K-1 enzyme; 10 μM compound, 10 µM) [%] | Tumor growth inhibition (TGI) (CT26 tumor; 10 mg/kg p.o. QD, day 25, vs vehicle group) [%] | Tumor growth inhibition (TGI) (CT26 tumor; 50 mg/kg p.o. QD, day 25, vs vehicle group) [%] | inhibition at 1 µM (MAP4K-1 enzyme; 1 μM compound) [%] | inhibition at 10 µM (MAP4K-1 enzyme; 10 μM compound) [%] | IC50 (MAP4K-1 enzyme; IC50 (nM)) [nM] | Tumor growth inhibition (TGI) (CT26 tumor; 10 mg/kg p.o. QD, day 24, vs vehicle group) [%] | Tumor growth inhibition (TGI) (CT26 tumor; 50 mg/kg p.o. QD, day 24, vs vehicle group) [%]
COc1cc2c(cc1Nc1ncc(Cl)c(Nc3ccc(OS(=O)(=O)F)cc3P(C)(C)=O)n1)C(C)N(C)CC2 (single isomer, unassigned; isomer 2) [Example 30, 4-((5-Chloro-2-((6-methoxy-1,2-dimethyl-1,2,3,4-tetrahydroisoquinolin-7-yl)amino)pyrimidin-4-yl)amino)-3-(dimethylphosphoryl)phenyl sulfofluoridate dihydrochloride (Isomer 2)] | < 50 | 79.12 | 82.70 | 37 | 62 |  |  |  |  | 
COc1cc2c(cc1Nc1ncc(Cl)c(Nc3ccc(OS(=O)(=O)F)cc3P(C)(C)=O)n1)CN(C)CC2 [Example 2, 4-((5-chloro-2-((6-methoxy-2-methyl-1,2,3,4-tetrahydroisoquinolin-7-yl)amino)pyrimidin-4-yl)amino)-3-(dimethylphosphoryl)phenyl sulfofluoridate dihydrochloride] |  |  |  |  |  | 86 | 82.1 | < 50 | 40 | 61
